Results taken from PubChem BioAssay (NCI).
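Tested at 5 concentrations; 48 h exposure; 96-well plates; endpoints linearly interpolated, else capped at highest concentration. TGI: concentration producing complete growth inhibition.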

What was measured:
Assay in all cases: growth of human tumour cells (NCI), 48 h
MDA-MB-435 = test system: MDA-MB-435
HCT-116 colon = test system: HCT-116 colon
HCT-15 colon = test system: HCT-15 colon
EKVX NSCLC = test system: EKVX NSCLC
OVCAR-4 ovarian = test system: OVCAR-4 ovarian
OVCAR-3 ovarian = test system: OVCAR-3 ovarian
U251 CNS = test system: U251 CNS
BT-549 breast = test system: BT-549 breast
K-562 leukemia = test system: K-562 leukemia
SK-MEL-5 melanoma = test system: SK-MEL-5 melanoma
HOP-92 NSCLC = test system: HOP-92 NSCLC
MCF7 breast = test system: MCF7 breast
NCI-H226 lung = test system: NCI-H226 lung
NCI-H522 lung = test system: NCI-H522 lung
MOLT-4 leukemia = test system: MOLT-4 leukemia
PC-3 prostate = test system: PC-3 prostate
RPMI-8226 leukemia = test system: RPMI-8226 leukemia
UACC-62 melanoma = test system: UACC-62 melanoma
TK-10 renal = test system: TK-10 renal
LOX IMVI melanoma = test system: LOX IMVI melanoma
CCRF-CEM leukemia = test system: CCRF-CEM leukemia
A498 renal = test system: A498 renal
MDA-N = test system: MDA-N
HT29 colon = test system: HT29 colon
SW-620 colon = test system: SW-620 colon
SK-MEL-28 melanoma = test system: SK-MEL-28 melanoma
OVCAR-8 ovarian = test system: OVCAR-8 ovarian
DU-145 prostate = test system: DU-145 prostate
NCI-H23 lung = test system: NCI-H23 lung
SF-539 CNS = test system: SF-539 CNS
SF-295 CNS = test system: SF-295 CNS
COLO 205 colon = test system: COLO 205 colon
KM12 colon = test system: KM12 colon
A549 NSCLC = test system: A549 NSCLC
SN12C renal = test system: SN12C renal
NCI-H460 lung = test system: NCI-H460 lung
MDA-MB-231 breast = test system: MDA-MB-231 breast
SK-MEL-2 melanoma = test system: SK-MEL-2 melanoma
UO-31 renal = test system: UO-31 renal
CAKI-1 renal = test system: CAKI-1 renal
HOP-62 NSCLC = test system: HOP-62 NSCLC
ACHN renal = test system: ACHN renal
RXF 393 renal = test system: RXF 393 renal
HCC-2998 colon = test system: HCC-2998 colon
UACC-257 melanoma = test system: UACC-257 melanoma
IGROV1 ovarian = test system: IGROV1 ovarian
SNB-19 CNS = test system: SNB-19 CNS
786-0 renal = test system: 786-0 renal
HL-60(TB) leukemia = test system: HL-60(TB) leukemia
SR leukemia = test system: SR leukemia
SF-268 CNS = test system: SF-268 CNS
M14 melanoma = test system: M14 melanoma
NCI/ADR-RES ovarian = test system: NCI/ADR-RES ovarian
OVCAR-5 ovarian = test system: OVCAR-5 ovarian
HS 578T breast = test system: HS 578T breast
MALME-3M melanoma = test system: MALME-3M melanoma
SK-OV-3 ovarian = test system: SK-OV-3 ovarian
T-47D breast = test system: T-47D breast
SNB-75 CNS = test system: SNB-75 CNS

O=C1CC[C@@]2(O)[C@H]3Cc4ccc(-c5cccc(O)c5)c5c4[C@@]2(CCN3CC2CC2)[C@H]1O5 showed a TGI (MDA-MB-435) of 27.8 µM, a TGI (HCT-116 colon) of 38.6 µM and a TGI (HCT-15 colon) of 71.3 µM. The TGI (EKVX NSCLC) was > 30.4 µM, the TGI (OVCAR-4 ovarian) was > 100 µM and the TGI (OVCAR-3 ovarian) was 43.9 µM. For the same compound, the TGI (U251 CNS) was 25.1 µM, the TGI (BT-549 breast) was 76.6 µM and the TGI (K-562 leukemia) was 47 µM. For the same compound, the TGI (SK-MEL-5 melanoma) was 31.2 µM, the TGI (HOP-92 NSCLC) was 80.8 µM and the TGI (MCF7 breast) was > 92.4 µM. For the same compound, the TGI (NCI-H226 lung) was 90.2 µM, the TGI (NCI-H522 lung) was 30.9 µM and the TGI (MOLT-4 leukemia) was 56.4 µM. For the same compound, the TGI (PC-3 prostate) was > 91.2 µM, the TGI (RPMI-8226 leukemia) was 52.1 µM and the TGI (UACC-62 melanoma) was 28.2 µM. For the same compound, the TGI (TK-10 renal) was 47 µM, the TGI (LOX IMVI melanoma) was 27.2 µM and the TGI (CCRF-CEM leukemia) was 0.513 µM. For the same compound, the TGI (A498 renal) was 48.3 µM, the TGI (MDA-N) was 30.9 µM and the TGI (HT29 colon) was 33.4 µM. The TGI (SW-620 colon) was > 55.6 µM, the TGI (SK-MEL-28 melanoma) was > 100 µM and the TGI (OVCAR-8 ovarian) was 44.4 µM. The TGI (DU-145 prostate) was > 100 µM, the TGI (NCI-H23 lung) was > 84 µM and the TGI (SF-539 CNS) was 36.6 µM. The TGI (SF-295 CNS) was 43.9 µM, the TGI (COLO 205 colon) was 43.3 µM and the TGI (KM12 colon) was 57.5 µM. For the same compound, the TGI (A549 NSCLC) was > 100 µM, the TGI (SN12C renal) was > 83.3 µM and the TGI (NCI-H460 lung) was 29.2 µM. For the same compound, the TGI (MDA-MB-231 breast) was 46.9 µM, the TGI (SK-MEL-2 melanoma) was 24.8 µM and the TGI (UO-31 renal) was 42.7 µM. The TGI (CAKI-1 renal) was > 100 µM, the TGI (HOP-62 NSCLC) was 66.2 µM and the TGI (ACHN renal) was > 85.9 µM. For the same compound, the TGI (RXF 393 renal) was 52.7 µM, the TGI (HCC-2998 colon) was 34.1 µM and the TGI (UACC-257 melanoma) was 26.5 µM. For the same compound, the TGI (IGROV1 ovarian) was > 89.6 µM, the TGI (SNB-19 CNS) was > 100 µM and the TGI (786-0 renal) was 36.6 µM. For the same compound, the TGI (HL-60(TB) leukemia) was 4.92 µM, the TGI (SR leukemia) was 66.9 µM and the TGI (SF-268 CNS) was 67.1 µM. The TGI (M14 melanoma) was 26.2 µM, the TGI (NCI/ADR-RES ovarian) was 53.2 µM and the TGI (OVCAR-5 ovarian) was > 80.3 µM.

For O=C1c2ccccc2C2=Cc3ccccc3C(O)N12 (configuration not stated), the TGI (MDA-MB-435) was > 100 µM, the TGI (HCT-116 colon) was > 100 µM and the TGI (HCT-15 colon) was > 100 µM. For the same compound, the TGI (EKVX NSCLC) was > 100 µM, the TGI (OVCAR-4 ovarian) was > 100 µM and the TGI (OVCAR-3 ovarian) was > 100 µM. For the same compound, the TGI (HS 578T breast) was > 100 µM, the TGI (U251 CNS) was > 100 µM and the TGI (K-562 leukemia) was > 100 µM. For the same compound, the TGI (SK-MEL-5 melanoma) was > 100 µM, the TGI (HOP-92 NSCLC) was > 100 µM and the TGI (MCF7 breast) was > 100 µM. The TGI (NCI-H226 lung) was > 100 µM, the TGI (NCI-H522 lung) was 40.8 µM and the TGI (MOLT-4 leukemia) was 91.9 µM. The TGI (PC-3 prostate) was > 100 µM, the TGI (RPMI-8226 leukemia) was > 100 µM and the TGI (MALME-3M melanoma) was > 100 µM. The TGI (UACC-62 melanoma) was 65.3 µM, the TGI (TK-10 renal) was > 100 µM and the TGI (LOX IMVI melanoma) was > 100 µM. For the same compound, the TGI (CCRF-CEM leukemia) was > 100 µM, the TGI (A498 renal) was > 100 µM and the TGI (MDA-N) was > 100 µM. For the same compound, the TGI (HT29 colon) was > 100 µM, the TGI (SW-620 colon) was > 100 µM and the TGI (SK-MEL-28 melanoma) was > 100 µM. The TGI (OVCAR-8 ovarian) was > 100 µM, the TGI (DU-145 prostate) was > 100 µM and the TGI (NCI-H23 lung) was > 100 µM. The TGI (SF-539 CNS) was > 100 µM, the TGI (SF-295 CNS) was > 100 µM and the TGI (SK-OV-3 ovarian) was > 100 µM. For the same compound, the TGI (COLO 205 colon) was > 100 µM, the TGI (KM12 colon) was > 100 µM and the TGI (A549 NSCLC) was > 100 µM. For the same compound, the TGI (SN12C renal) was > 100 µM, the TGI (NCI-H460 lung) was > 100 µM and the TGI (MDA-MB-231 breast) was > 100 µM. The TGI (SK-MEL-2 melanoma) was > 100 µM, the TGI (UO-31 renal) was 35 µM and the TGI (CAKI-1 renal) was 43.2 µM. The TGI (HOP-62 NSCLC) was > 100 µM, the TGI (ACHN renal) was > 100 µM and the TGI (RXF 393 renal) was 83.8 µM. For the same compound, the TGI (HCC-2998 colon) was > 100 µM, the TGI (UACC-257 melanoma) was > 100 µM and the TGI (IGROV1 ovarian) was > 100 µM. The TGI (SNB-19 CNS) was > 100 µM, the TGI (786-0 renal) was > 100 µM and the TGI (HL-60(TB) leukemia) was 64.1 µM. The TGI (SR leukemia) was 83.5 µM, the TGI (SF-268 CNS) was > 100 µM and the TGI (T-47D breast) was > 100 µM. The TGI (SNB-75 CNS) was > 100 µM, the TGI (M14 melanoma) was > 100 µM and the TGI (NCI/ADR-RES ovarian) was > 100 µM. The TGI (OVCAR-5 ovarian) was > 100 µM.
